Bridge positions count the residues as written; N and C are the ends. Square brackets hold non-standard residues; d marks the D form. Peptide text beside a SMILES is read from it. * marks the point of attachment. X1 = O=C(O)CN1CCN(CC(=O)O)CC(Cc2ccc(NC(=S)*)cc2)N(CC(=O)O)CC1; NMeF = CN[C@@H](Cc1ccccc1)C(=O)O; NMeA = CN[C@@H](C)C(=O)O

These results are taken from patent US20260297134A1, “CYCLIC PEPTIDES AS PET IMAGING AGENTS OF GRANZYME B” (Merck Sharp & Dohme LLC, priority 2023, published 2026).

Sequence of human Granzyme B (hGranzyme B) (P10144 21-247): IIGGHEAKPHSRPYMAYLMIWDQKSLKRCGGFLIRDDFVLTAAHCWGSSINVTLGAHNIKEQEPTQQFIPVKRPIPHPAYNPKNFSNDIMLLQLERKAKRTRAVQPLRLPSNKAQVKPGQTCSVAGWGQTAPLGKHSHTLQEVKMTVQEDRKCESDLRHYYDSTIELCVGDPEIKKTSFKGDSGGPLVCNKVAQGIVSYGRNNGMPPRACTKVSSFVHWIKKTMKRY

The assay has as its target human Granzyme B (hGranzyme B) (Homo sapiens, UniProt P10144). Nature of the assay: Surface Plasmon Resonance (SPR) binding to human Granzyme B. Particulars: Table 8, 25° C. How it is done: All reagents and solvents were purchased from commercial sources and used “as is” unless otherwise noted. Reaction progress and synthetic intermediate analysis were assessed by LCMS (UV detection with ESI, APCI, or other mass detection) when applicable using a MeCN/water gradient with either TFA, formic acid, or NH4HCO3 modifier. Silica gel and reverse-phase flash column chromatography were conducted with commercially available pre-packed columns. Reverse-phase preparative HPLC purification was performed on preparative HPLC instruments with UV and MS detection using a MeCN/water gradient with either TFA, formic acid, or NH4OH modifier. Unless otherwise noted, all KD data presented in tables refers to the surface plasmon resonance assay that is described in the Biological Assay section.
The kinetics of test peptide binding to human Granzyme B (hGranzyme B) was determined by SPR. All experiments were performed at 25° C. using the Biacore 8k+ instrument (Cytiva, Marlborough, MA). The Biacore 8k+ Insight Evaluation Software Version 3.0 was used to fit the data with a 1:1 binding model to determine the association rate constant ka (M^−1s^−1, where “M” equals molar and “s” equals seconds) and the dissociation rate constant kd (s^−1). These rate constants were used to calculate the equilibrium dissociation constant, KD (M)=kd/ka. To measure the binding kinetics of peptides of interest, surfaces were prepared by a capture method to a Series S Streptavidin (SA) chip using a 1×HBS-EP+ running buffer (Cytiva). hGranzyme B was diluted to 10 μg/mL in 1×HBS-EP+ and flowed over spot 2 of each flow cell on the chip at a flow rate of 10 μl/min for 20 s to achieve a level of capture of ~1100 RU. An unmodified spot 1 of each flow cell was used as a matrix binding control or reference surface. Binding kinetics were measured using single cycle kinetics at 25° C. by injecting 5 concentrations with 3-fold serial dilutions of test peptides from […] to 1 μM. Compound dilutions were performed manually in a running buffer containing 1×HBS-EP+(Cytiva), and a final concentration of 2% DMSO. The interaction analyses over hGranzyme B, were performed using a 120 s association time and a 900 s dissociation time. All experiments were conducted at a flow rate of […] with a data collection rate of 10 Hz.
Peptide dilution series included 2 zero concentration points (no compound) which were averaged and subtracted from the peptide concentration injection as DMSO control responses. Binding data acquired from the reference surface (matrix binding control) were subtracted from the binding data for hGranzyme B surface on the chip to determine specific binding. Next, the association phase data were solvent corrected to account for any signal fluctuation throughout the experiment due to subtle DMSO concentration differences. Corrected response data were analyzed using the Biacore 8k+ Evaluation Software Version 3.0 according to the manufacturer. SPR data for representative compounds of the disclosure are found in Table 8.
The term Kd denotes a measure of binding affinity in units of concentration. `CC(C)[C@@H]1NC(=O)[C@H](CC(=O)O)NC(=O)[C@H](C)NC(=O)[C@H](Cc2ccc(O)cc2)NC(=O)[C@H](Cc2ccccc2)N(C)C(=O)[C@H](Cc2ccccc2)N(C)C(=O)[C@H](Cc2ccccc2)NC(=O)CSC[C@@H](C(=O)NCC(N)=O)NC(=O)[C@H](Cc2c[nH]cn2)NC(=O)[C@H](Cc2ccccc2)N(C)C(=O)[C@H](Cc2ccc(O)cc2)NC(=O)[C@H](C(C)C)NC(=O)[C@H](CC(=O)O)NC(=O)[C@H](C(C)C)NC(=O)[C@H](CC(=O)O)NC1=O` [Compound 15a, *F.NMeF.NMeF.Y.A.D.V.D.V.D.V.Y.NMeF.H.*C.G-NH2] ({CH2CO}-F[NMeF][NMeF]YADVDVDVY[NMeF]HCG-NH2; thioether N-15) had a Kd of 0.8 nM. In other words, the sub-nanomolar range.
Then `CC(C)[C@@H]1NC(=O)[C@H](CC(=O)O)NC(=O)[C@H](Cc2ccc(O)cc2)NC(=O)[C@H](Cc2ccc(O)cc2)NC(=O)[C@H](Cc2ccccc2)N(C)C(=O)[C@H](Cc2ccccc2)N(C)C(=O)[C@H](Cc2ccccc2)NC(=O)CSC[C@@H](C(=O)NCC(=O)N[C@@H](CCCCN)C(=O)N[C@@H](CCCCN)C(N)=O)NC(=O)[C@H](Cc2c[nH]cn2)NC(=O)[C@H](Cc2ccccc2)N(C)C(=O)[C@H](Cc2ccc(O)cc2)NC(=O)[C@H](C(C)C)NC(=O)[C@H](CC(=O)O)NC(=O)[C@H](C(C)C)NC(=O)[C@H](CC(=O)O)NC1=O` [Compound 13a, *F.NMeF.NMeF.Y.Y.D.V.D.V.D.V.Y.NMeF.H.*C.G.K.K-NH2] ({CH2CO}-F[NMeF][NMeF]YYDVDVDVY[NMeF]HCGKK-NH2; thioether N-15), with 0.1 nM.
As for `CC(C)[C@@H]1NC(=O)[C@H](CC(=O)O)NC(=O)[C@H](Cc2ccc(O)cc2)NC(=O)[C@H](Cc2ccc(O)cc2)NC(=O)[C@H](C)NC(=O)[C@H](Cc2ccccc2)N(C)C(=O)[C@H](Cc2ccccc2)NC(=O)CSC[C@@H](C(=O)NCC(N)=O)NC(=O)[C@H](Cc2c[nH]cn2)NC(=O)[C@H](Cc2ccccc2)N(C)C(=O)[C@H](Cc2ccc(O)cc2)NC(=O)[C@H](C(C)C)NC(=O)[C@H](CC(=O)O)NC(=O)[C@H](C(C)C)NC(=O)[C@H](CC(=O)O)NC1=O` [Compound 18a, *F.NMeF.A.Y.Y.D.V.D.V.D.V.Y.NMeF.H.*C.G-NH2] ({CH2CO}-F[NMeF]AYYDVDVDVY[NMeF]HCG-NH2; thioether N-15), the figure is 68 nM.
As for `CC(C)[C@@H]1NC(=O)[C@H](CC(=O)O)NC(=O)[C@H](Cc2ccc(O)cc2)NC(=O)[C@H](Cc2ccc(O)cc2)NC(=O)[C@H](Cc2ccccc2)N(C)C(=O)[C@H](Cc2ccccc2)N(C)C(=O)[C@H](Cc2ccccc2)NC(=O)CSC[C@@H](C(=O)NCC(=O)NCC(=O)N[C@@H](CCCCNC(=S)Nc2ccc(CC3CN(CC(=O)O)CCN(CC(=O)O)CCN3CC(=O)O)cc2)C(N)=O)NC(=O)[C@H](Cc2c[nH]cn2)NC(=O)[C@H](Cc2ccccc2)N(C)C(=O)[C@H](Cc2ccc(O)cc2)NC(=O)[C@H](C(C)C)NC(=O)[C@H](CC(=O)O)NC(=O)[C@H](C(C)C)NC(=O)[C@H](CC(=O)O)NC1=O` (some centres unmarked) [Compound 3a, *F.NMeF.NMeF.Y.Y.D.V.D.V.D.V.Y.NMeF.H.*C.G.G.K(NOTA)-NH2] ({CH2CO}-F[NMeF][NMeF]YYDVDVDVY[NMeF]HCGGK(X1)-NH2; thioether N-15), the figure is 1 nM.
`CC(C)[C@@H]1NC(=O)[C@H](CC(=O)O)NC(=O)[C@H](Cc2ccc(O)cc2)NC(=O)[C@H](Cc2ccc(O)cc2)NC(=O)[C@H](Cc2ccccc2)N(C)C(=O)[C@H](Cc2ccccc2)N(C)C(=O)[C@H](Cc2ccccc2)NC(=O)CSC[C@@H](C(=O)NCC(=O)NCC(=O)N[C@@H](CCCCNC(=S)Nc2ccc(CC3CN(CC(=O)O)CCN(CC(=O)O)CCN3CC(=O)O)cc2)C(N)=O)NC(=O)[C@H](Cc2c[nH]cn2)NC(=O)[C@H](Cc2ccccc2)N(C)C(=O)[C@H](Cc2ccc(O)cc2)NC(=O)[C@H](C(C)C)NC(=O)[C@H](CC(=O)O)NC(=O)[C@H](C)NC(=O)[C@H](CC(=O)O)NC1=O` (some centres unmarked) [Compound 8a, *F.NMeF.NMeF.Y.Y.D.V.D.A.D.V.Y.NMeF.H.*C.G.G.K(NOTA)-NH2] ({CH2CO}-F[NMeF][NMeF]YYDVDADVY[NMeF]HCGGK(X1)-NH2; thioether N-15) came in with a Kd of 3.7 nM. Compared with the last compound, the Kd is about 3.7-fold higher.
Then `CC(C)[C@@H]1NC(=O)[C@H](CC(=O)O)NC(=O)[C@H](Cc2ccc(O)cc2)NC(=O)[C@H](Cc2ccc(O)cc2)NC(=O)[C@H](Cc2ccccc2)N(C)C(=O)[C@H](Cc2ccccc2)N(C)C(=O)[C@H](Cc2ccccc2)NC(=O)CSC[C@@H](C(=O)NCC(=O)N[C@@H](CCCCN)C(N)=O)NC(=O)[C@H](Cc2c[nH]cn2)NC(=O)[C@H](Cc2ccccc2)N(C)C(=O)[C@H](Cc2ccc(O)cc2)NC(=O)[C@H](C(C)C)NC(=O)[C@H](CC(=O)O)NC(=O)[C@H](C(C)C)NC(=O)[C@H](CC(=O)O)NC1=O` [Compound 12a, *F.NMeF.NMeF.Y.Y.D.V.D.V.D.V.Y.NMeF.H.*C.G.K-NH2] ({CH2CO}-F[NMeF][NMeF]YYDVDVDVY[NMeF]HCGK-NH2; thioether N-15), with 2.6 nM; and `CC(C)[C@@H]1NC(=O)[C@H](CC(=O)O)NC(=O)[C@H](Cc2ccc(O)cc2)NC(=O)[C@H](Cc2ccc(O)cc2)NC(=O)[C@H](Cc2ccccc2)N(C)C(=O)[C@H](Cc2ccccc2)N(C)C(=O)[C@H](C)NC(=O)CSC[C@@H](C(=O)NCC(N)=O)NC(=O)[C@H](Cc2c[nH]cn2)NC(=O)[C@H](Cc2ccccc2)N(C)C(=O)[C@H](Cc2ccc(O)cc2)NC(=O)[C@H](C(C)C)NC(=O)[C@H](CC(=O)O)NC(=O)[C@H](C(C)C)NC(=O)[C@H](CC(=O)O)NC1=O` [Compound 19a, *A.NMeF.NMeF.Y.Y.D.V.D.V.D.V.Y.NMeF.H.*C.G-NH2] ({CH2CO}-A[NMeF][NMeF]YYDVDVDVY[NMeF]HCG-NH2; thioether N-15), with 165 nM; and `CC(C)[C@@H]1NC(=O)[C@H](C)NC(=O)[C@H](C(C)C)NC(=O)[C@H](CC(=O)O)NC(=O)[C@H](Cc2ccc(O)cc2)NC(=O)[C@H](Cc2ccc(O)cc2)NC(=O)[C@H](Cc2ccccc2)N(C)C(=O)[C@H](Cc2ccccc2)N(C)C(=O)[C@H](Cc2ccccc2)NC(=O)CSC[C@@H](C(=O)NCC(N)=O)NC(=O)[C@H](Cc2c[nH]cn2)NC(=O)[C@H](Cc2ccccc2)N(C)C(=O)[C@H](Cc2ccc(O)cc2)NC(=O)[C@H](C(C)C)NC(=O)[C@H](CC(=O)O)NC1=O` [Compound 22a, *F.NMeF.NMeF.Y.Y.D.V.A.V.D.V.Y.NMeF.H.*C.G-NH2] ({CH2CO}-F[NMeF][NMeF]YYDVAVDVY[NMeF]HCG-NH2; thioether N-15), with 548 nM.
As for `CC(C)[C@@H]1NC(=O)[C@H](CC(=O)O)NC(=O)[C@H](C)NC(=O)[C@H](Cc2ccc(O)cc2)NC(=O)[C@H](Cc2ccccc2)N(C)C(=O)[C@H](Cc2ccccc2)N(C)C(=O)[C@H](Cc2ccccc2)NC(=O)CSC[C@@H](C(=O)NCC(=O)N[C@@H](CCCCN)C(N)=O)NC(=O)[C@H](Cc2c[nH]cn2)NC(=O)[C@H](Cc2ccccc2)N(C)C(=O)[C@H](Cc2ccc(O)cc2)NC(=O)[C@H](C(C)C)NC(=O)[C@H](CC(=O)O)NC(=O)[C@H](C(C)C)NC(=O)[C@H](CC(=O)O)NC1=O` [Compound 10a, *F.NMeF.NMeF.Y.A.D.V.D.V.D.V.Y.NMeF.H.*C.G.K-NH2] ({CH2CO}-F[NMeF][NMeF]YADVDVDVY[NMeF]HCGK-NH2; thioether N-15), the figure is 1 nM.
As to `CC(C)[C@@H]1NC(=O)[C@H](CC(=O)O)NC(=O)[C@H](Cc2ccc(O)cc2)NC(=O)[C@H](Cc2ccc(O)cc2)NC(=O)[C@H](C)N(C)C(=O)[C@H](Cc2ccccc2)N(C)C(=O)[C@H](Cc2ccccc2)NC(=O)CSC[C@@H](C(=O)NCC(N)=O)NC(=O)[C@H](Cc2c[nH]cn2)NC(=O)[C@H](Cc2ccccc2)N(C)C(=O)[C@H](Cc2ccc(O)cc2)NC(=O)[C@H](C(C)C)NC(=O)[C@H](CC(=O)O)NC(=O)[C@H](C(C)C)NC(=O)[C@H](CC(=O)O)NC1=O` [Compound 24a, *F.NMeF.NMeA.Y.Y.D.V.D.V.D.V.Y.NMeF.H.*C.G-NH2] ({CH2CO}-F[NMeF][NMeA]YYDVDVDVY[NMeF]HCG-NH2; thioether N-15), the Kd stood at 5.4 nM.
Then `CC(C)[C@@H]1NC(=O)[C@H](CC(=O)O)NC(=O)[C@H](Cc2ccc(O)cc2)NC(=O)[C@H](Cc2ccc(O)cc2)NC(=O)[C@H](Cc2ccccc2)N(C)C(=O)[C@H](Cc2ccccc2)N(C)C(=O)[C@H](Cc2ccccc2)NC(=O)CSC[C@@H](C(=O)NCC(N)=O)NC(=O)[C@H](Cc2c[nH]cn2)NC(=O)[C@H](Cc2ccccc2)N(C)C(=O)[C@H](Cc2ccc(O)cc2)NC(=O)[C@H](C(C)C)NC(=O)[C@H](CC(=O)O)NC(=O)[C@H](C)NC(=O)[C@H](CC(=O)O)NC1=O` [Compound 16a, *F.NMeF.NMeF.Y.Y.D.V.D.A.D.V.Y.NMeF.H.*C.G-NH2] ({CH2CO}-F[NMeF][NMeF]YYDVDADVY[NMeF]HCG-NH2; thioether N-15), with 4.7 nM.
